Experiments:
barnyardgrass [1] = assay: Test A pre-/postemergence herbicide test; assay type: in vivo, Echinochloa crus-galli
Procedure, shortened: (§1)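 Greenhouse injury scoring (0–100, complete control = 100) at approximately ten days follows simultaneous pre- and postemergence application. Soil received a directed spray after seeding; seedlings of 2–10 cm at the one- to two-leaf stage were sprayed to runoff.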

large crabgrass [2] = assay: Test A pre-/postemergence herbicide test; assay type: in vivo, Digitaria sanguinalis
Procedure, shortened: as §1

giant foxtail [3] = assay: Test A pre-/postemergence herbicide test; assay type: in vivo, Setaria faberi
Procedure, shortened: as §1

morningglory [4] = assay: Test A pre-/postemergence herbicide test; assay type: in vivo, Ipomoea spp.
Procedure, shortened: as §1

redroot pigweed = assay: Test A pre-/postemergence herbicide test; assay type: in vivo, Amaranthus retroflexus
Procedure, shortened: as §1

velvetleaf [5] = assay: Test A pre-/postemergence herbicide test; assay type: in vivo, Abutilon theophrasti
Procedure, shortened: as §1

barnyardgrass [6] = assay: Test B pre-/postemergence herbicide test; assay type: in vivo, Echinochloa crus-galli; details: for Barnyardgrass plant response rating: postemergence, visual rating, scale 0 (no effect) to 100 (complete control)
Procedure, shortened: (§2)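 Seeds were planted and treated preemergence with compounds formulated in a non-phytotoxic solvent mixture containing surfactant, while plants at the 1- to 4-leaf stage (2 to 18 cm) received postemergence sprays. Flooded paddy plants were grown to the 2-leaf stage. After 13 to 15 days in a greenhouse, injury was visually rated 0–100 against untreated controls.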

Surinam grass = assay: Test B pre-/postemergence herbicide test; assay type: in vivo, Urochloa decumbens; details: for Surinam Grass plant response rating: postemergence, visual rating, scale 0 (no effect) to 100 (complete control)
Procedure, shortened: (§3)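 Evaluation is visual, comparing treated with control plants on a scale where 0 means no effect and 100 means full control. Treatments were preemergence, or postemergence on seedlings 2–18 cm tall, and held 13–15 days in the greenhouse.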

cocklebur = assay: Test B pre-/postemergence herbicide test; assay type: in vivo, Xanthium strumarium; details: for Cocklebur plant response rating: postemergence, visual rating, scale 0 (no effect) to 100 (complete control)
Procedure, shortened: as §2

corn = assay: Test B pre-/postemergence herbicide test; assay type: in vivo, Zea mays; details: for Corn plant response rating: postemergence, visual rating, scale 0 (no effect) to 100 (complete control)
Procedure, shortened: as §3

large crabgrass [7] = assay: Test B pre-/postemergence herbicide test; assay type: in vivo, Digitaria sanguinalis; details: for Crabgrass, Large plant response rating: postemergence, visual rating, scale 0 (no effect) to 100 (complete control)
Procedure, shortened: as §3

giant foxtail [8] = assay: Test B pre-/postemergence herbicide test; assay type: in vivo, Setaria faberi; details: for Foxtail, Giant plant response rating: postemergence, visual rating, scale 0 (no effect) to 100 (complete control)
Procedure, shortened: as §3

lambsquarters = assay: Test B pre-/postemergence herbicide test; assay type: in vivo, Chenopodium album; details: for Lambsquarters plant response rating: postemergence, visual rating, scale 0 (no effect) to 100 (complete control)
Procedure, shortened: as §3

morningglory [9] = assay: Test B pre-/postemergence herbicide test; assay type: in vivo, Ipomoea coccinea; details: for Morningglory plant response rating: postemergence, visual rating, scale 0 (no effect) to 100 (complete control)
Procedure, shortened: as §2

pigweed = assay: Test B pre-/postemergence herbicide test; assay type: in vivo, Amaranthus retroflexus; details: for Pigweed plant response rating: postemergence, visual rating, scale 0 (no effect) to 100 (complete control)
Procedure, shortened: as §3

rice [10] = assay: Test B pre-/postemergence herbicide test; assay type: in vivo, Oryza sativa; details: preemergence
Procedure, shortened: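 Plants compared with untreated controls 13–15 days post-treatment and given a visual 0–100 injury score. Applications: preemergence to seeds; postemergence at 1- to 4-leaf (2–18 cm); paddy species flooded, 2-leaf stage. Vehicle non-phytotoxic, surfactant included.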

velvetleaf [11] = assay: Test B pre-/postemergence herbicide test; assay type: in vivo, Abutilon theophrasti; details: for Velvetleaf plant response rating: postemergence, visual rating, scale 0 (no effect) to 100 (complete control)
Procedure, shortened: as §3

blackgrass = assay: Test B postemergence herbicide test; assay type: in vivo, Alopecurus myosuroides; details: postemergence, visual rating, scale 0 (no effect) to 100 (complete control)
Procedure, shortened: (§4)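 Postemergence plants were sprayed with formulated test chemicals at 2 to 18 cm height (1- to 4-leaf stage); paddy species were grown to the 2-leaf stage. After 13 to 15 days in a greenhouse, injury was rated visually against untreated controls on a 0–100 scale (0 = no effect, 100 = complete control).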

wheat = assay: Test B postemergence herbicide test; assay type: in vivo, Triticum aestivum; parameters: key to Wheat plant response rating: 0 = no effect, 100 = complete control; details: postemergence, visual rating, scale 0 (no effect) to 100 (complete control)
Procedure, shortened: as §4

wild oat = assay: Test B postemergence herbicide test; assay type: in vivo, Avena fatua; details: postemergence, visual rating, scale 0 (no effect) to 100 (complete control)
Procedure, shortened: as §4

rice [12] = assay: Test B flooded paddy test; assay type: in vivo, Oryza sativa; details: 1000 g ai/ha, visual rating, scale 0 to 100 (0 no effect, 100 complete control), 13 to 15 days
Procedure, shortened: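 Each value is a visual 0–100 response rating taken against controls 13 to 15 days after treatment in the greenhouse. Plants received formulated chemical postemergence at the 1- to 4-leaf stage or, in flooded paddy, at the 2-leaf stage.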

[13] = test system: small flower umbrella sedge; assay: Test B flooded paddy test; assay type: in vivo, Cyperus difformis; details: 1000 g ai/ha, visual rating, scale 0 to 100 (0 no effect, 100 complete control), 13 to 15 days
Procedure, shortened: as §4

ducksalad = assay: Test B flooded paddy test; assay type: in vivo, Heteranthera limosa; details: 1000 g ai/ha, visual rating, scale 0 to 100 (0 no effect, 100 complete control), 13 to 15 days
Procedure, shortened: as §4

barnyardgrass [14] = assay: Test B flooded paddy test; assay type: in vivo, Echinochloa crus-galli; details: 1000 g ai/ha, visual rating, scale 0 to 100 (0 no effect, 100 complete control), 13 to 15 days
Procedure, shortened: as §4

[15] = Postemergence, 500 g ai/ha, 0 to 100 scale, 0 no effect, 100 complete control
[16] = Postemergence, 2000 g ai/ha, 0 to 100 scale, 0 no effect, 100 complete control
[17] = Preemergence, 2000 g ai/ha, visual rating, 0 to 100 scale (0 no effect, 100 complete control)
[18] = preemergence, 500 g ai/ha, visual injury, 0 to 100 scale (0 no effect, 100 complete control)
[19] = 125 g ai/ha, 0 = no effect, 100 = complete control, preemergence
[20] = 500 g ai/ha, visual rating 0-100, 0 no effect, 100 complete control, preemergence

Cc1nn(C(C)(C)C)cc1C(=O)Nc1cccc(OC(C)C)c1 [Compound 189]
Barnyardgrass plant response rating (barnyardgrass [1]; [15]): 0 | Plant response rating, Barnyardgrass (barnyardgrass [1]; [16]): 10 | Barnyardgrass plant response rating (barnyardgrass [1]; [17]): 65 | Barnyardgrass plant response rating (barnyardgrass [1]; [18]): 35 | Crabgrass, Large plant response rating (large crabgrass [2]; [15]): 10 | Plant response rating, Crabgrass, Large (large crabgrass [2]; [16]): 10 | Crabgrass, Large plant response rating (large crabgrass [2]; [17]): 75 | Crabgrass, Large plant response rating (large crabgrass [2]; [18]): 55 | Foxtail, Giant plant response rating (giant foxtail [3]; [15]): 0 | Plant response rating, Foxtail, Giant (giant foxtail [3]; [16]): 0 | Foxtail, Giant plant response rating (giant foxtail [3]; [17]): 20 | Foxtail, Giant plant response rating (giant foxtail [3]; [18]): 5 | Morningglory plant response rating (morningglory [4]; [15]): 10 | Plant response rating, Morningglory (morningglory [4]; [16]): 10 | Morningglory plant response rating (morningglory [4]; [17]): 30 | Morningglory plant response rating (morningglory [4]; [18]): 15 | Pigweed plant response rating (redroot pigweed; [15]): 30 | Plant response rating, Pigweed (redroot pigweed; [16]): 45 | Pigweed plant response rating (redroot pigweed; [17]): 40 | Pigweed plant response rating (redroot pigweed; [18]): 25 | Velvetleaf plant response rating (velvetleaf [5]; [15]): 5 | Plant response rating, Velvetleaf (velvetleaf [5]; [16]): 5 | Velvetleaf plant response rating (velvetleaf [5]; [17]): 25 | Velvetleaf plant response rating (velvetleaf [5]; [18]): 10 | Barnyardgrass plant response rating (0 to 100 scale) (barnyardgrass [6]; [19]): 0 | Plant response rating, Barnyardgrass (barnyardgrass [6]; [20]): 30 | Barnyardgrass plant response rating (barnyardgrass [6]; 125 g ai/ha): 0 | Barnyardgrass plant response rating (barnyardgrass [6]; 500 g ai/ha): 10 | Surinam Grass plant response rating (0 to 100 scale) (Surinam grass; [19]): 0 | Plant response rating, Surinam Grass (Surinam grass; [20]): 20 | Surinam Grass plant response rating (Surinam grass; 125 g ai/ha): 10 | Surinam Grass plant response rating (Surinam grass; 500 g ai/ha): 20 | Cocklebur plant response rating (0 to 100 scale) (cocklebur; [19]): 0 | Plant response rating, Cocklebur (cocklebur; [20]): 0 | Cocklebur plant response rating (cocklebur; 125 g ai/ha): 0 | Cocklebur plant response rating (cocklebur; 500 g ai/ha): 10 | Corn plant response rating (0 to 100 scale) (corn; [19]): 0 | Plant response rating, Corn (corn; [20]): 0 | Corn plant response rating (corn; 125 g ai/ha): 10 | Corn plant response rating (corn; 500 g ai/ha): 10 | Crabgrass, Large plant response rating (0 to 100 scale) (large crabgrass [7]; [19]): 30 | Plant response rating, Crabgrass, Large (large crabgrass [7]; [20]): 60 | Crabgrass, Large plant response rating (large crabgrass [7]; 125 g ai/ha): 10 | Crabgrass, Large plant response rating (large crabgrass [7]; 500 g ai/ha): 20 | Foxtail, Giant plant response rating (0 to 100 scale) (giant foxtail [8]; [19]): 0 | Plant response rating, Foxtail, Giant (giant foxtail [8]; [20]): 10 | Foxtail, Giant plant response rating (giant foxtail [8]; 125 g ai/ha): 0 | Foxtail, Giant plant response rating (giant foxtail [8]; 500 g ai/ha): 10 | Lambsquarters plant response rating (0 to 100 scale) (lambsquarters; [19]): 0 | Plant response rating, Lambsquarters (lambsquarters; [20]): 30 | Lambsquarters plant response rating (lambsquarters; 125 g ai/ha): 50 | Lambsquarters plant response rating (lambsquarters; 500 g ai/ha): 50 | Plant response rating, Morningglory (morningglory [9]; [20]): 20 | Morningglory plant response rating (morningglory [9]; 125 g ai/ha): 80 | Morningglory plant response rating (morningglory [9]; 500 g ai/ha): 90 | Pigweed plant response rating (0 to 100 scale) (pigweed; [19]): 90 | Plant response rating, Pigweed (pigweed; [20]): 100 | Pigweed plant response rating (pigweed; 125 g ai/ha): 30 | Pigweed plant response rating (pigweed; 500 g ai/ha): 60 | Rice plant response rating (0 to 100 scale) (rice [10]; 125 g ai/ha, 0 = no effect, 100 = complete control): 0 | Plant response rating, Rice (rice [10]; 500 g ai/ha, visual rating 0-100, 0 no effect, 100 complete control): 50 | Velvetleaf plant response rating (0 to 100 scale) (velvetleaf [11]; [19]): 0 | Plant response rating, Velvetleaf (velvetleaf [11]; [20]): 20 | Velvetleaf plant response rating (velvetleaf [11]; 125 g ai/ha): 20 | Velvetleaf plant response rating (velvetleaf [11]; 500 g ai/ha): 20 | Blackgrass plant response rating (blackgrass; 125 g ai/ha): 0 | Blackgrass plant response rating (blackgrass; 500 g ai/ha): 0 | Wheat plant response rating (wheat; 125 g ai/ha): 0 | Wheat plant response rating (wheat; 500 g ai/ha): 0 | Oat, Wild plant response rating (wild oat; 125 g ai/ha): 10 | Oat, Wild plant response rating (wild oat; 500 g ai/ha): 10 | Rice plant response rating (rice [12]): 40 | Sedge, Umbrella plant response rating [13]: 70 | Ducksalad plant response rating (ducksalad): 70 | Barnyardgrass plant response rating (barnyardgrass [14]): 60

Reference: patent US20060069132A1, “Azolecarboxamide herbicides” (priority 2004, published 2006)
